Assay results from paper PMC4786250, “Effects of Intraosseous Tibial vs. Intravenous Vasopressin in a Hypovolemic Cardiac Arrest Model” (Western Journal of Emergency Medicine, 2016).

Tests used:
[1] = Vasopressin concentration in blood samples (HPLC-MS/MS) after tibial IO or IV administration in a hypovolemic cardiac arrest model; assay type: in vivo, Yorkshire swine; details: 40 units; for Cmax / Tmax / level at 1 min: Yorkshire, serum; for Cmax / Tmax: pig, mean ± standard deviation; for Cmax: during CPR, male swine 60-80 kg, 31% blood volume hemorrhage, ventricular fibrillation, femoral artery samples 0.5-4 min, HPLC-MS/MS; for Tmax / level at 1 min: male; for Tmax: SD; for level at 1 min: 60 seconds after injection, mean ± standard error, SEM
Source text: (§1) The study was a prospective, between-subjects, experimental design. The Institutional Animal Care and Use Committee (IACUC) approved the research protocol, and the animals received care in compliance with the Animal Welfare Act. Twenty-eight Yorkshire swine were randomly assigned by a computer generated random number program to one of four groups: IV + defibrillation (n=7), IO tibia + defibrillation (n=7), CPR + defibrillation (n=7), and a control group that received just CPR (n=7). Two additional swine were added in the each of the IV and IO groups for model development. These two swine meet the criteria for inclusion in the study, and no changes were necessary in the protocol. Therefore, the pigs were included in both groups to make a total of eight in both the tibial IO and IV groups. However, one pig in the IO group was ill and was deleted from the study making a total of seven in that group.
(§2) In addition, their blood volume is the same as humans: 70ml per kg of body weight.[18],[19] To avoid any variability in subjects, we purchased the swine from the same vendor and acquired pigs that were approximately the same size. Male swine were used to avoid any potential hormonal effects. Subjects weighing between 60 to 80kg were used as this range represents the average weight of an adult, human.[20] […] All subjects received no food after midnight the evening before the study but were allowed fluids as desired until the experiment
(§3) Each subject received pre-emptive analgesia with Telazol (4–8mg/kg). They were then sedated, anesthetized, intubated, and placed on mechanical ventilation. A standard Narkomed® anesthesia machine (Dräger, Telford, PA) was used to deliver isoflurane at a maintenance dose (0.5–2%) and ventilation at 8–10mL/kg at 10–14 breaths per minute. A peripheral IV was started on all subjects using an 18- or 20-gauge catheter in the auricular vein. […] Hemodynamics were evaluated continuously that included the following: electrocardiogram, arterial blood pressure via a left carotid artery catheter, mean arterial pressure, oxygen saturation, end-tidal carbon dioxide, and temperature. A forced-air warming blanket was used to sustain rectal temperature greater than 36 degrees Celsius. A Vigileo™ (Edwards Lifesciences, Irvine, CA) was used to obtain cardiac output and stroke volume measurements via the arterial line. The femoral artery was cannulated for the collection of blood samples and for the achievement of controlled hemorrhage.
(§4) For swine in the tibial IO group, we inserted an EZ-IO® device (Vidacare, San Antonio, TX) in the proximal, medial tibia. Placement was confirmed by aspiration of blood and easy irrigation with 10mL of 0.9% normal saline (NS). Patency was maintained by administering Lactated Ringer’s solution with a pressure bag at 300mmHg. Subjects were allowed to stabilize for 15 minutes; we then exsanguinated 31% of their blood volume from the femoral artery catheter into a canister. This represented a Class III hemorrhage. Hemorrhage was accomplished by allowing blood to drain by gravity over approximately 15 minutes. To ensure the amount exsanguinated was correct, the investigators used a scale that was accurate and precise within 0.5%.
(§5) In response to hypovolemic shock in accordance with Tactical Combat Casualty Care guidelines, we administered 500mL of 5% albumin to all subjects over 10 minutes.[22] Five minutes after the administration of albumin, the investigators placed the pigs in cardiac arrest, defined as a nonperfusing arrhythmia. […] The needles were attached to alligator clamps. The clamps were attached to three 9-volt batteries that were connected in a series to deliver an electrical current, thereby inducing nonperfusing ventricular fibrillation. We were able to establish ventricular fibrillation usually within 10 seconds. In some cases, we had to reposition the needles resulting in 100% being placed into ventricular fibrillation.
(§6) The pigs were allowed to remain in arrest for two minutes. […]

[2] = test system: hypovolemic cardiac arrest model; experiment: Return of spontaneous circulation (ROSC) in a hypovolemic cardiac arrest model; assay type: in vivo, Yorkshire swine; details: for time to ROSC: 40 units, mean ± standard deviation, SD; for Number achieving ROSC / Number not achieving ROSC: 40 units + CPR + defibrillation, up to 20 min
Source text: as §1, §2, §3, §4, §5, §6

Q: Which Cmax ([1]; IV (auricular vein) push, n=8) does the source give for `NC(=O)CC[C@@H]1NC(=O)[C@H](Cc2ccccc2)NC(=O)[C@H](Cc2ccc(O)cc2)NC(=O)[C@@H](N)CSSC[C@@H](C(=O)N2CCC[C@H]2C(=O)N[C@@H](CCCN=C(N)N)C(=O)NCC(N)=O)NC(=O)[C@H](CC(N)=O)NC1=O` [vasopressin] here?
A: The Cmax was 106 ng/mL.

Q: And the Cmax ([1]; tibial IO push, n=7)?
A: The Cmax was 58.7 ng/mL.

Q: What about the Tmax ([1]; IV, n=8) of the same compound?
A: Its Tmax is 1.43 min.

Q: What about the Tmax ([1]; tibial IO, n=7) of the same compound?
A: Its Tmax is 2.63 min.

Q: And the level at 1 min ([1]; IV, n=8)?
A: Its level at 1 min is 76.8 ng/mL.

Q: What about the level at 1 min ([1]; tibial IO, n=7) of the same compound?
A: The level at 1 min was 23.6 ng/mL.

Q: What about the “Cmax concentration of the IO group compared to the IV group” value ([1]; tibial IO relative to IV) of the same compound?
A: Its value is 55%.

Q: And the “time to ROSC” value ([2]; IO group (line "IO vs. CPR + defibrillation"))?
A: The value was 493 ± 226 s.

Q: What about the “Odds of ROSC” value ([2]; IO vs. CPR + defibrillation) of the same compound?
A: The value was 15.

Q: And the “Odds of ROSC” value ([2]; IO vs. CPR only)?
A: Its value is 65.

Q: What about the “time to ROSC” value ([2]; IV group (line "IV vs. IO")) of the same compound?
A: The value was 559 ± 231 s.

Q: What about the “Odds of ROSC” value ([2]; IV vs. CPR + defibrillation) of the same compound?
A: The value was 17.5.

Q: What about the “Odds of ROSC” value ([2]; IV vs. CPR only) of the same compound?
A: Its value is 75.

Q: And the “Number achieving ROSC” value ([2]; IV, N=8)?
A: The value was 7.

Q: What about the “Number not achieving ROSC” value ([2]; IV, N=8) of the same compound?
A: Its value is 1.

Q: What about the “Number achieving ROSC” value ([2]; tibial IO, N=7) of the same compound?
A: Its value is 6.

Q: What about the “Number not achieving ROSC” value ([2]; tibial IO, N=7) of the same compound?
A: Its value is 1.
